{"source": "patent US20020094524A1", "about": "“Compositions and methods for inhibiting HIV infection” (priority 2000, published 2002)", "key": {"HIV Bal strain": {"tested_on": "HIV Bal strain", "assay": "HIV RT activity in HIV Bal strain-infected MDM", "assay_type": "cell-based, HIV-1", "conditions": "for HIV RT activity increased: MDM, 12 days after infection (FIG. 1A)", "protocol": "The cells were also incubated with SP and/or anti-SP antibody. In this case, SP was incubated with (1:1000 dilution in 10% FCS DMEM) or without anti-SP antibody at room temperature for 10 min and then the mixture was added to the cell cultures for 2 h. When the cells were treated with the combination of CP-96,345 and SP, or CP-96,345, SP and anti-SP antibody, CP-96,345 was incubated with the cell culture for 10 min and then SP was added to the MDM or CP-96,345, SP and anti-SP (1:1000 in 10% FCS DMEM) were incubated for 10 min at room temperature and the mixture was incubated with the MDM for 2 h before infection with HIV. Untreated MDM served as controls. The cells were treated prior to, during, and throughout the infection.\nHIV Infection: After 2 h incubation with or without the reagents described above, the cells were infected with equal amounts of cell-free HIV based on p24 antigen content (20 ng/10^6 cells) overnight, and then washed to remove unbound virus. Fresh media containing SP and/or CP-96,345 or anti-SP antibody were added to the MDM as described above. The culture media and the reagents were replaced twice weekly. The culture supernatants were harvested for HIV reverse transcriptase (RT) activity determinations. After HIV infection, the MDM were incubated for 8 to 12 days. At the termination of the experiments, cellular RNA was extracted for assessment of HIV gag gene expression using RT-PCR or real time RT-PCR assays.\nThe HIV RT activity assay was carried out based on the technique of Willey et al. (30) with modification (22)."}, "CCR5": {"tested_on": "CCR5", "assay": "Macrophage receptor expression by flow cytometry", "assay_type": "cell-based, human", "conditions": "overnight/24 h; among CD4, CCR5, CXCR4 and CD14 only CCR5 changed (FIG. 8)", "protocol": "The cells were removed from the culture plate and then resuspended in 100 μl of phosphate-buffered saline (PBS). After incubation with 20 μl of either anti-CCR5-FITC or anti-CXCR4-FITC or anti-CD4-FITC or anti-CD14-FITC for 45 min at 4° C., the cells were washed twice with PBS and fixed with 1% paraformaldehyde in PBS. Fluorescein-conjugated control antibodies were isotype-matched IgG. Fluorescence was analyzed on an EPICS-Elite flow cytometer (Beckman-Coulter Electronics, Hialeah, Fla.)."}, "HIV LTR promoter": {"tested_on": "HIV LTR promoter", "assay": "HIV LTR-driven CAT activity assay in U38 cells", "assay_type": "cell-based", "excerpt": "ACH-2 and U38 cell lines (25, 26) were obtained from the NIH AIDS Reagent Program. DNA extracted from ACH-2 cells was used as a positive standard for HIV DNA PCR as previously reported (27). The U38 cell line contains stably integrated, silent copies of the HIV LTR (long terminal repeat) promoter linked to a CAT (chloramphenicol acetyltransferase) gene and was used to study the effect of SP and/or CP-96,345 and R-113281 on the activation of HIV LTR promoter.\nChloramphenicol acetyltransferase (CAT) activity assay:U38 cells (2×10^6 cells) were incubated with different concentrations of SP and/or CP-96,345 or R-113281 for 48 h. Untreated U38 cells were used as a background control. Cellular proteins were extracted using 1× Reporter Lysis Bufffer (Promega Corp., Madison, Wis.). The lysates were incubated with a mixture containing 0.15 μCi of ^14C-labeled chloramphenicol (DuPont Inc., Boston, Mass.) and 200 μg/ml of n-Butyryl CoA (Promega Corp., Madison, Wis.) in a total volume of 125 μl at 37° C. for 3 h. The acetylated forms of chloramphenicol were extracted with xylene (Aldrich Chemical Company, Milwaukee, Wis.). CAT activity of each sample was quantified using a liquid-scintillation counter (Packard Instrument Company, Downers Grove, Ill.). The results were expressed as the ratio of CAT activity (CPM) of the SP and/or CP-96,345-treated or R-113281-treated U38 to that of the background control."}}, "data": [{"compound": "COc1ccccc1CN[C@H]1C2CCN(CC2)[C@H]1C(c1ccccc1)c1ccccc1", "note": "[CP-96,344]", "values": [{"measurement": "viral replication by HIV RT activity vs HIV infection control", "setting": "HIV Bal strain; 10^−7M, 8 days after infection (FIG. 4)", "result": "did not have the effect"}, {"measurement": "CCR5 receptor expression on MDM (percentage positive cells)", "setting": "CCR5", "result": "did not affect"}]}, {"compound": "Substance P [SP]", "values": [{"measurement": "effect of SP alone on HIV replication (RT activity and gag mRNA)", "setting": "HIV Bal strain; SP 10^−6M, 12 days after infection (FIG. 5)", "result": "enhanced HIV replication"}, {"measurement": "HIV RT activity increased", "setting": "HIV Bal strain; SP 10^−6M", "result": 58, "unit": "%"}, {"measurement": "HIV RT activity increased", "setting": "HIV Bal strain; SP 10^−8M", "result": 40, "unit": "%"}, {"measurement": "HIV RT activity increased", "setting": "HIV Bal strain; SP 10^−10M", "result": 14, "unit": "%"}, {"measurement": "HIV LTR-driven CAT activity vs untreated baseline", "setting": "HIV LTR promoter; SP 10^−5M, 48 hours (FIG. 16)", "result": "significantly increases"}, {"measurement": "HIV LTR-driven CAT activity vs untreated control cells", "setting": "HIV LTR promoter; SP 10^−10 to 10^−6M, 48 h, P<0.05 (FIG. 7)", "result": "significantly increased"}]}]}
